Test results as given in US11666048B2, “Treatment for plants in conjunction with harvesting” (CORBET SCIENTIFIC, LLC, priority 2017, dated 2023).
Where “and” joins values, the source holds several entries; their conditions need not be identical. Equal values may be shown once. Entries after “also recorded” stand apart in the source; their conditions may differ.

Legend:
harvested grapefruit [1] = test: Post-harvest water-loss protection in fruit (Example 5); assay type: in vivo; settings: ambient storage
Protocol: Grapefruit trees were separated into three groups. […] Spray treatment formulations were applied using a commercial air-blast sprayer (250 gallons/acre). Size 40 fruit were harvested in quadruplicate, washed, and waxed on Day 0. The washed and waxed fruit as then stored at ambient conditions (approximately 70-75° F.) for 40 days. Size 40 fruit harvested on Day 1 were left unwashed and unwaxed prior to storage (unwashed and unwaxed samples). To test the ability of the aqueous formulation of the present invention to protect harvested fruit from water loss, stored fruit were observed 8 and 20 days after harvest.

harvested grapefruit [2] = test: Post-harvest disease protection in fruit: healthy fruit, total decay, stem-end rind breakdown (Example 5); assay type: in vivo; settings: after 40 days in storage
Protocol: (§1) Grapefruit trees were separated into three groups. […] Spray treatment formulations were applied using a commercial air-blast sprayer (250 gallons/acre). Size 40 fruit were harvested in quadruplicate, washed, and waxed on Day 0. The washed and waxed fruit as then stored at ambient conditions (approximately 70-75° F.) for 40 days. Size 40 fruit harvested on Day 1 were left unwashed and unwaxed prior to storage (unwashed and unwaxed samples). After 40 days in storage, no significant differences were observed between treated and untreated fruit in terms of the percentage of healthy fruit and the percentage of total decay in the two groups.

Diplodia = test: Post-harvest disease protection in fruit: Diplodia (Example 5); assay type: in vivo, grapefruit; settings: after 40 days in storage
Protocol: as §1

Anthracnose = test: Post-harvest disease protection in fruit: Anthracnose (Example 5); assay type: in vivo, grapefruit; settings: after 40 days in storage
Protocol: as §1

Green Mold = test: Post-harvest disease protection in fruit: Green Mold (Example 5); assay type: in vivo, grapefruit; settings: after 40 days in storage
Protocol: as §1

harvested grapefruit [3] = test: Water retention and disease protection in harvested grapefruit, pre-harvest spray (Example 3); assay type: in vivo
Protocol: Grapefruit trees were separated into three groups. Fruit in Groups 2 and 3 were treated prior to harvesting. Group 3 was treated with an aqueous treatment formulation comprising 95.70 wt % water, 2.00 wt % ACUSOL® 823, 0.10 wt % PVA (100,000 MW), 0.10 wt % ZnSO4 monohydrate, 0.10 wt % Antifoam® 8810, and 2.00 wt % TEA. […] Group 1 was untreated and served as a control. Groups 2 and 3 fruit were spray treated on Day −14 in the grove. Fruit was not de-greened. Fruit was weighed on Day 0, prior to packaging. Size 27-36 fruit were packed in honeycomb cartons, whereas size 40 fruit was packed in regular 4/5 cartons. Packed fruit was inspected on Day 68.

[4] = average over cartons of the group

## O=P([O-])([O-])O.[K+].[K+] [DKP, di-potassium phosphate]
Harvested grapefruit [1]; not washed and waxed
  Wt. Loss (%) Day 8: 1.43 a %
  Wt. Loss (%) Day 20: 4.08 a %
Harvested grapefruit [1]; washed and waxed
  Wt. Loss (%) Day 8: 1.11 c %
  Wt. Loss (%) Day 20: 3.89 a %
Harvested grapefruit [2]
  SERB (stem-end rind breakdown) (%): 7.15% and 7.15 ab %
  Total Decay (%): 16.31%
Harvested grapefruit [2]; washed and waxed fruit
  Healthy (%): 77.15%
Diplodia
  Disease Diplodia (%): 6.5%
Anthracnose
  Disease Anthracnose (%): 5.9%
Green Mold
  Disease Green Mold (%): 3.96%

## O=P([O-])(O)O.[K+] [MKP, mono potassium phosphate]
Harvested grapefruit [3]; [4]
  Average Weight Difference (%): 12.5%
  Average Δ Weight (lbs): 5 lbs
Harvested grapefruit [3]; fruit size 27, Day 0 to Day 54
  Weight Difference (%): 11%
  Δ Weight (lbs): 4.4 lbs and 4.6 lbs
Harvested grapefruit [3]; fruit size 32, Day 0 to Day 54
  Weight Difference (%): 14% and 13%
  Δ Weight (lbs): 5.6 lbs and 5.2 lbs
Harvested grapefruit [3]; fruit size 32, fruit per carton at inspection
  Disease (puncture): 1 puncture
Harvested grapefruit [3]; fruit size 36, Day 0 to Day 54
  Weight Difference (%): 14%
  Δ Weight (lbs): 5.6 lbs and 5.8 lbs
Harvested grapefruit [3]; fruit size 36, fruit per carton at inspection
  Disease: 4 rot and 3 rot
Harvested grapefruit [3]; fruit size 40, Day 0 to Day 54
  Weight Difference (%): 12% and 11%
  Δ Weight (lbs): 4.6 lbs and 4.2 lbs
Harvested grapefruit [3]; fruit size 40, fruit per carton at inspection
  Disease: 1 rot
Harvested grapefruit [3]; packed fruit at inspection
  shine and firmness compared with control: negligible
Harvested grapefruit [3]; remarks printed beside carton lines, probably for the whole group, footnote: ⅔ fruit per carton were very firm
  Fruit Condition: no shine; also recorded: Like control; also recorded: very soft
